Legend:
[1] = test system: absorption of sodium from the intestinal lumen; experiment: Fecal form score (FFS) 16 h after oral dose in rats; format: in vivo, rat; settings: oral gavage, 16 h post-dose, scale 1-5
Summary of the method: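 Eight-week-old Sprague-Dawley rats (n=6) dosed by oral gavage with compound or water vehicle between 4 and 5 PM, then housed in metabolic cages with food and water ad libitum. At 16 h, fecal form scored 1 (normal pellet) to 5 (liquid streams) by two observers; group mean reported.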

[2] = target: T1, Human NHE3 (Homo sapiens, UniProt P48764); experiment: Cell-based NHE3 activity under prompt conditions (OK cells, BCECF pH recovery), human NHE3; settings: prompt conditions
T1 construct: expressed in transfected cells; host or cells: Opossum kidney (OK) cells (ATCC), electroporation
T1 sequence (P48764 26-834): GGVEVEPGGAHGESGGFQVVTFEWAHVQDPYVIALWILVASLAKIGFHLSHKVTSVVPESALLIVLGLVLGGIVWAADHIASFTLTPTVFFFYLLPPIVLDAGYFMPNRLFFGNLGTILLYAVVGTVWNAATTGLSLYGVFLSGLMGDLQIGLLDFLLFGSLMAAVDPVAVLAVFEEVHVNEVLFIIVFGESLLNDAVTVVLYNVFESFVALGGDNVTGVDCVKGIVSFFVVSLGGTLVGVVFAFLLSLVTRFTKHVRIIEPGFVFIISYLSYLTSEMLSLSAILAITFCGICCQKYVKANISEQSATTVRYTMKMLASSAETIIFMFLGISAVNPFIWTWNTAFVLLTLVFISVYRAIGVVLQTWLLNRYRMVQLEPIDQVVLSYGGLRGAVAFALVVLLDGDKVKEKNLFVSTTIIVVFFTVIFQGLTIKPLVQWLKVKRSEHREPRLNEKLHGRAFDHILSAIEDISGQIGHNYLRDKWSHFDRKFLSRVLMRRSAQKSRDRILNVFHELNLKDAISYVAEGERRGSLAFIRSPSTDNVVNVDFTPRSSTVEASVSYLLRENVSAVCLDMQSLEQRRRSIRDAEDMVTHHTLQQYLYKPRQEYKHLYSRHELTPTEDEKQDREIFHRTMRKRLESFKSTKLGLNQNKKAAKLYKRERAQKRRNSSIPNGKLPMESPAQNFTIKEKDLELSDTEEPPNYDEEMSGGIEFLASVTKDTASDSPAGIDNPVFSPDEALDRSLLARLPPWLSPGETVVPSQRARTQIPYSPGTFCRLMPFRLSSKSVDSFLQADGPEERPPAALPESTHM
Summary of the method: (§1)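 OK cells electroporated with rat or human NHE3 gene, loaded 30 min at room temperature with 5 μM BCECF-AM in NH4Cl-HEPES pH 7.4.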

[3] = target: T2, Rat NHE3 (Rattus norvegicus, UniProt P26433); experiment: Cell-based NHE3 activity under prompt conditions (OK cells, BCECF pH recovery), rat NHE3; settings: prompt conditions
T2 construct: expressed in transfected cells; host or cells: Opossum kidney (OK) cells (ATCC), electroporation
Summary of the method: as §1

[4] = test system: phosphorus and calcium levels in the urine of rats; experiment: Urinary excretion of phosphate and calcium in rats (16 h overnight urine); format: in vivo, rat; settings: rats, oral gavage, 16 h post-dose
[5] = test system: absorption of sodium from the intestinal lumen; experiment: Inhibition of intestinal sodium absorption: urinary sodium (uNa) 16 h after single oral dose in rats; format: in vivo, rat; settings: oral gavage, 16 h post-dose
Summary of the method: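 Eight-week-old Sprague-Dawley rats (n=6) given single oral gavage of compound or water vehicle in the late afternoon, then kept in metabolic cages with chow and water ad libitum. Urine collected over 16 h; sodium quantified by ion chromatography and expressed as % of vehicle mean, compared by one-way ANOVA with Dunnett's test.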

T2 sequence (P26433 29-831): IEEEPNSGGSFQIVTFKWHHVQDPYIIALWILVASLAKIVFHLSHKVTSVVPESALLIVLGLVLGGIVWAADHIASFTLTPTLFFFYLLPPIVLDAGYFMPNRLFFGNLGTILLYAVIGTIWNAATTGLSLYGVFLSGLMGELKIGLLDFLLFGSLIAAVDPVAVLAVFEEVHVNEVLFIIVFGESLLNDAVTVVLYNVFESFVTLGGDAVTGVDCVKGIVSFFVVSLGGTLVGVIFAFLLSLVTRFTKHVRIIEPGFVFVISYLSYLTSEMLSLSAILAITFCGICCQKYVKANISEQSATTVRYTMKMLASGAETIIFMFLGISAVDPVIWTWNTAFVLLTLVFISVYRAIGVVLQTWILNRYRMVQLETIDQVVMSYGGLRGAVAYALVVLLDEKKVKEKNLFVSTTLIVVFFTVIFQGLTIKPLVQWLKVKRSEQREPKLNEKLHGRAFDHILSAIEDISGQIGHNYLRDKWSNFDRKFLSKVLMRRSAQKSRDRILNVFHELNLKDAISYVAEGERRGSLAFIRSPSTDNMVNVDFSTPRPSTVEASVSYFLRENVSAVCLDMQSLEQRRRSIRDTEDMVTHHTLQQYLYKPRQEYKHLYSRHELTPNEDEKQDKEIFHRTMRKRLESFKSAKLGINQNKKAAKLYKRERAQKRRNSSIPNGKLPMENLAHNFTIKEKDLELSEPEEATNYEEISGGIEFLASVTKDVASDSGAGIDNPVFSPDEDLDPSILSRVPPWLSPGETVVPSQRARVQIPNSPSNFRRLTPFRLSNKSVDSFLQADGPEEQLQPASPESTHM

Structure (SMILES)	Fecal Form Score average ([1]; dose 10 mg/kg)	Prompt Human NHE3 pIC50 [2]	Prompt Rat NHE3 pIC50 [3]	Urine P % of control ([4]; dose 10 mg/kg)	Urine Na % of control ([5]; dose 10 mg/kg)	Fecal Form Score average ([1]; dose 1 mg/kg)	Fecal Form Score average ([1]; dose 3 mg/kg)	Urine P % of control ([4]; dose 1 mg/kg)	Urine P % of control ([4]; dose 3 mg/kg)	Urine Na % of control ([5]; dose 1 mg/kg)	Urine Na % of control ([5]; dose 3 mg/kg)	IC50 ([3]; read-out: Prompt Rat NHE3 pIC50 (converted))	Fecal Form Score average ([1]; dose 8 mg/kg)	Urine P % of control ([4]; dose 8 mg/kg)	Urine Na % of control ([5]; dose 8 mg/kg)
CN1Cc2c(Cl)cc(Cl)cc2[C@H](c2cccc(S(=O)(=O)NCCOCCOCCOCCn3cc(CN(Cc4cn(CCOCCOCCOCCNS(=O)(=O)c5cccc([C@@H]6CN(C)Cc7c(Cl)cc(Cl)cc76)c5)nn4)Cc4cnnn4CCOCCOCCOCCNS(=O)(=O)c4cccc([C@@H]5CN(C)Cc6c(Cl)cc(Cl)cc65)c4)nn3)c2)C1 [compound 73]	2	6.30	5.30	49%	74%	–	–	–	–	–	–	–	–	–	–
CN1Cc2c(Cl)cc(Cl)cc2[C@H](c2cccc(S(=O)(=O)NCCOCCOCCNC(=O)CN(CC(=O)NCCOCCOCCNS(=O)(=O)c3cccc([C@@H]4CN(C)Cc5c(Cl)cc(Cl)cc54)c3)CC(=O)NCCOCCOCCNS(=O)(=O)c3cccc([C@@H]4CN(C)Cc5c(Cl)cc(Cl)cc54)c3)c2)C1 [compound 74]	3	6.80	6.30	44%	30%	–	–	–	–	–	–	–	–	–	–
CN1Cc2c(Cl)cc(Cl)cc2[C@H](c2cccc(S(=O)(=O)NCCOCCOCCNC(=O)NCCN(CCNC(=O)NCCOCCOCCNS(=O)(=O)c3cccc([C@@H]4CN(C)Cc5c(Cl)cc(Cl)cc54)c3)CCNC(=O)NCCOCCOCCNS(=O)(=O)c3cccc([C@@H]4CN(C)Cc5c(Cl)cc(Cl)cc54)c3)c2)C1 [compound 76]	3	6.40	5.60	61%	12%	1	2	96%	89%	58%	40%	–	–	–	–
CN1Cc2c(Cl)cc(Cl)cc2[C@H](c2cccc(S(=O)(=O)NCCOCCOCCNC(=O)NCCCN(CCCNC(=O)NCCOCCOCCNS(=O)(=O)c3cccc([C@@H]4CN(C)Cc5c(Cl)cc(Cl)cc54)c3)CCCNC(=O)NCCOCCOCCNS(=O)(=O)c3cccc([C@@H]4CN(C)Cc5c(Cl)cc(Cl)cc54)c3)c2)C1 [compound 77]	4	7.35	6.25	41%	17%	2	2	82%	79%	80%	36%	–	–	–	–
CN1Cc2c(Cl)cc(Cl)cc2[C@H](c2cccc(S(=O)(=O)NCCOCCOCCNC(=O)CC(O)(CC(=O)NCCOCCOCCNS(=O)(=O)c3cccc([C@@H]4CN(C)Cc5c(Cl)cc(Cl)cc54)c3)C(=O)NCCOCCOCCNS(=O)(=O)c3cccc([C@@H]4CN(C)Cc5c(Cl)cc(Cl)cc54)c3)c2)C1 [compound 78]	2	6.50	6.00	39%	53%	–	–	–	–	–	–	–	–	–	–
CN1Cc2c(Cl)cc(Cl)cc2[C@H](c2cccc(S(=O)(=O)NCCOCCOCCOCCNC(=O)CCN(CCC(=O)NCCOCCOCCOCCNS(=O)(=O)c3cccc([C@@H]4CN(C)Cc5c(Cl)cc(Cl)cc54)c3)CCC(=O)NCCOCCOCCOCCNS(=O)(=O)c3cccc([C@@H]4CN(C)Cc5c(Cl)cc(Cl)cc54)c3)c2)C1 [compound 79]	3	7.20	–	33%	17%	1	2	109%	81%	65%	44%	316 nM	–	–	–
CN1Cc2c(Cl)cc(Cl)cc2[C@H](c2cccc(S(=O)(=O)NCCOCCOCCNC(=O)CCN(CCC(=O)NCCOCCOCCNS(=O)(=O)c3cccc([C@@H]4CN(C)Cc5c(Cl)cc(Cl)cc54)c3)CCC(=O)NCCOCCOCCNS(=O)(=O)c3cccc([C@@H]4CN(C)Cc5c(Cl)cc(Cl)cc54)c3)c2)C1 [compound 80]	3	6.93	5.50	21%	9%	1	2	70%	39%	66%	55%	–	–	–	–
CN1Cc2c(Cl)cc(Cl)cc2[C@H](c2cccc(S(=O)(=O)NCCOCCOCCNC(=O)CN(CCN(CC(=O)O)CC(=O)NCCOCCOCCNS(=O)(=O)c3cccc([C@@H]4CN(C)Cc5c(Cl)cc(Cl)cc54)c3)CC(=O)O)c2)C1 [compound 81]	2	7.90	7.90	42%	11%	–	–	–	–	–	–	–	–	–	–
CN1Cc2c(Cl)cc(Cl)cc2[C@H](c2cccc(S(=O)(=O)NCCOCCOCCNC(=O)NCCN(CCNC(=O)NCCOCCOCCNS(=O)(=O)c3cccc([C@@H]4CN(C)Cc5c(Cl)cc(Cl)cc54)c3)C(=O)CCCCCCCCCCC(=O)N(CCNC(=O)NCCOCCOCCNS(=O)(=O)c3cccc([C@@H]4CN(C)Cc5c(Cl)cc(Cl)cc54)c3)CCNC(=O)NCCOCCOCCNS(=O)(=O)c3cccc([C@@H]4CN(C)Cc5c(Cl)cc(Cl)cc54)c3)c2)C1 [compound 83]	1	<5.00	<5.00	59%	82%	–	–	–	–	–	–	–	–	–	–
CN1Cc2c(Cl)cc(Cl)cc2[C@H](c2cccc(S(=O)(=O)NCCOCCOCCOCCNC(=O)CC(CC(=O)NCCOCCOCCOCCNS(=O)(=O)c3cccc([C@@H]4CN(C)Cc5c(Cl)cc(Cl)cc54)c3)C(=O)NCCOCCOCCOCCNS(=O)(=O)c3cccc([C@@H]4CN(C)Cc5c(Cl)cc(Cl)cc54)c3)c2)C1 [compound 84]	–	7.70	7.50	–	–	–	–	–	–	–	–	–	3	47%	7%
CN1Cc2c(Cl)cc(Cl)cc2[C@H](c2cccc(S(=O)(=O)NCCOCCOCCNC(=O)CN(CCOCCOCCN(CC(=O)NCCOCCOCCNS(=O)(=O)c3cccc([C@@H]4CN(C)Cc5c(Cl)cc(Cl)cc54)c3)CC(=O)NCCOCCOCCNS(=O)(=O)c3cccc([C@@H]4CN(C)Cc5c(Cl)cc(Cl)cc54)c3)CC(=O)NCCOCCOCCNS(=O)(=O)c3cccc([C@@H]4CN(C)Cc5c(Cl)cc(Cl)cc54)c3)c2)C1 [compound 85]	1	6.10	5.80	85%	92%	–	–	–	–	–	–	–	–	–	–

Source: US20240366589A1, “NHE3-BINDING COMPOUNDS AND METHODS FOR INHIBITING PHOSPHATE TRANSPORT” (Ardelyx, Inc., priority 2013, published 2024)
